From publication PMC10322960 (European Journal of Drug Metabolism and Pharmacokinetics, 2023)

Assay: Phase 1 clinical drug–drug interaction study, safety assessment
Type: in vivo, human
Conditions: Cohort 1, 12 subjects; mild in severity

CCC(C)n1ncn(-c2ccc(N3CCN(c4ccc(OCC5COC(Cn6cncn6)(c6ccc(Cl)cc6Cl)O5)cc4)CC3)cc2)c1=O (centres unmarked) [itraconazole, reference compound]
number of treatment-emergent AEs considered related to the drug: 5
subjects with treatment-emergent AEs considered related to the drug: 16.7%
